Measurements: PMC11019538, “Biophysics-Guided Lead Discovery of HBV Capsid Assembly Modifiers” (ACS Infectious Diseases, 2024)
Read-outs that look alike come from different tables or passages of the source.

Legend:
[1] = tested on: T lymphoblast CEM-CCRF (CEM) cells; test: MTT cytotoxicity, CEM cells; format: cell-based, human
Description: (§1) Human peripheral blood mononuclear (PBM), T lymphoblast CEM-CCRF (herein referred to as CEM cells), African green monkey kidney (Vero), or human liver carcinoma (HepG2) cells were tested via MTT assay using the CellTiter 96 Non-Radioactive Cell Proliferation (Promega) kit as previously described.[63]

[2] = tested on: human peripheral blood mononuclear (PBM) cells; test: MTT cytotoxicity, PBM cells; format: cell-based
Description: as §1

[3] = tested on: African green monkey kidney (Vero) cells; test: MTT cytotoxicity, Vero cells; format: cell-based; details: Vero cells
Description: as §1

[4] = tested on: human liver carcinoma (HepG2) cells; test: MTT cytotoxicity, HepG2 cells; format: cell-based; details: HepG2 cells
Description: as §1

[5] = tested on: HBV DNA replication in HepAD38 cells; test: HBV DNA replication inhibition assay in HepAD38 cells (7 days, PCR of supernatant DNA); format: cell-based, hepatitis B virus; details: HepAD38 cells; for HBV DNA inhibition (%) at 10 µM: first round of selected compounds
Description: HepAD38 cells were seeded at 50,000 cells/well in collagen-coated 96-well plates. […] The experiment lasted 7 days. On day 7, total DNA was purified from the supernatant using a commercially available kit (DNeasy 96 Blood & Tissue kit, Qiagen). The HBV DNA was amplified in a polymerase chain reaction assay using LightCycler 480 II (Roche), as previously described.[63] All samples were tested in duplicate.

[6] = trial 1, read-out: EC50, trial 1
[7] = trial 2, read-out: EC50, trial 2

Row | Structure (SMILES) | CC50 [1] | CC50 [2] | CC50 [3] | CC50 [4] | % HBV DNA Inh. at 10 μM, trial 1 ([5]; trial 1) | % HBV DNA Inh. at 10 μM, trial 2 ([5]; trial 2) | EC50 [5, 6] | EC50 [5, 7] | HBV DNA inhibition (%) at 10 µM [5] | percent cytotoxicity (cell growth inhibition) at 100 µM [2] | % cytotoxicity at 100 µM (MTT), CEM cells [1] | % cytotoxicity (MTT) at 100 µM ([3]; 100 µM)
1 | Oc1c(C(Nc2ccccc2)c2ccccc2)ccc2cccnc12 (stereo not drawn) [GT-48] | 3.4 µM | 20 µM | 4.5 µM | 34 µM | < 1% | < 1% | > 10 µM | > 10 µM |  |  |  | 
2 | Cc1ccc(C(N)c2ccncc2)cc1 (stereo not drawn) [GT-20] | > 100 µM | > 100 µM | > 100 µM | > 100 µM |  |  |  |  | < 1% |  |  | 
3 | Cc1nc(-c2ccccc2)c(Cc2ccccc2O)c(=O)[nH]1 [GT-7] | > 100 µM | > 100 µM | > 100 µM | > 100 µM |  |  |  |  | < 1% |  |  | 
4 | NCc1cccc(Oc2ccccc2)c1 [GT-12] | 17 µM | > 100 µM | > 100 µM | > 100 µM |  |  |  |  | < 1% |  |  | 
5 | c1ccc(Cn2cc(-c3cccnc3)c(-c3nc(-c4ccccc4)c(-c4ccccc4)[nH]3)n2)cc1 [GT-34] | 11 µM | 59 µM | 14 µM | 16 µM | < 1% | < 1% | > 10 µM | > 10 µM |  |  |  | 
6 | Cc1ccc(-c2nc(CNC(=O)C3CCOC3)[nH]c2-c2ccccn2)cc1 (stereo not drawn) [GT-43] | 30 µM | 42 µM | 19 µM | 29 µM | 4.7% | 4.7% | > 10 µM | > 10 µM |  |  |  | 
7 | CC(NC(=O)c1ccccc1)c1ccccn1 (stereo not drawn) [GT-25] | > 100 µM | > 100 µM | > 100 µM | > 100 µM |  |  |  |  | < 1% |  |  | 
8 | O=C(CCc1ccccc1)Nc1cccnc1 [GT-15] | > 100 µM | > 100 µM | > 100 µM | > 100 µM |  |  |  |  | < 1% |  |  | 
9 | O=C(NCCN1CCOCC1)c1ccc2nc(-c3ccccc3)c(-c3ccccc3)nc2c1 [GT-36] | 18 µM | 10 µM | 31 µM | 29 µM | 11% | 11% | > 10 µM | > 10 µM |  |  |  | 
10 | CC(NC(=O)c1cccnc1)c1ccccc1 (stereo not drawn) [GT-18] | > 100 µM | > 100 µM | > 100 µM | > 100 µM |  |  |  |  | < 1% |  |  | 
11 | NCc1cccc(-c2ccccn2)c1 [GT-24] | 11.3 µM | > 100 µM | > 100 µM | > 100 µM |  |  |  |  | < 1% |  |  | 
12 | CC(O)(c1ccccc1)C(c1ccccc1)C1CCCCN1 (stereo not drawn) [GT-4] | > 100 µM | > 100 µM | > 100 µM | > 100 µM |  |  |  |  | < 1% |  |  | 
13 | COc1ccc(F)c(Cn2cnc(-c3ccccc3)c2-c2c[nH]cn2)c1F [GT-38] | 62 µM | > 100 µM | 48 µM | 24 µM | 45% | 45% | > 10 µM | > 10 µM |  | 24% |  | 
14 | NCc1ccc(-c2ccccc2F)o1 [GT-19] | > 100 µM | > 100 µM | > 100 µM | > 100 µM |  |  |  |  | < 1% |  |  | 
15 | NCc1ccc(N2CCC(CO)CC2)cc1 [GT-17] | > 100 µM | > 100 µM | > 100 µM | > 100 µM |  |  |  |  | < 1% |  |  | 
16 | CC(CC(C#N)(c1ccccc1)c1ccccc1)N1CCCCC1 (stereo not drawn) [GT-2] | 16.1 µM | 85.3 µM | > 100 µM | 26.4 µM |  |  |  |  | < 1% |  |  | 
17 | COc1ccc(-c2cc(C(=O)Oc3cccc(-c4cnc5ccccc5n4)c3)c3ccccc3n2)cc1 [GT-31] | > 100 µM | 86 µM | 97 µM | 42 µM | < 1% | < 1% | > 10 µM | > 10 µM |  |  | 36% | 
18 | Cc1cc(-c2ccccc2)nc(C#N)c1C#N [GT-27] | 4 µM | 14.7 µM | 27.3 µM | 41.7 µM |  |  |  |  | < 1% |  |  | 
19 | CCN(CC)CCCNc1cc(OC)c(Nc2ccccc2)c2cccnc12 [GT-49] | 9.4 µM | 27 µM | 16 µM | 17 µM | 45% | 45% | > 10 µM | > 10 µM |  |  |  | 
20 | O=C(Cc1ccc(O)cc1)NCc1nc(-c2cccc(F)c2)c(-c2ccccn2)[nH]1 [GT-42] | 1.4 µM | 3.5 µM | 13 µM | 5.4 µM | < 1% | < 1% | > 10 µM | > 10 µM |  |  |  | 

Row | Structure (SMILES) | CC50 [1] | CC50 [2] | CC50 [3] | CC50 [4] | % HBV DNA Inh. at 10 μM, trial 1 ([5]; trial 1) | % HBV DNA Inh. at 10 μM, trial 2 ([5]; trial 2) | EC50 [5, 6] | EC50 [5, 7] | HBV DNA inhibition (%) at 10 µM [5] | percent cytotoxicity (cell growth inhibition) at 100 µM [2] | % cytotoxicity at 100 µM (MTT), CEM cells [1] | % cytotoxicity (MTT) at 100 µM ([3]; 100 µM)
21 | O=C(NCCn1ccnc1)c1ccccn1 [GT-26] | > 100 µM | > 100 µM | > 100 µM | > 100 µM |  |  |  |  | < 1% |  |  | 
22 | C=CC1CN2CCC1CC2C(O)c1ccnc2ccc(OC)cc12 (stereo not drawn) [GT-1] |  |  |  |  |  |  |  |  | < 1% |  |  | 
23 | N#CC(c1ccccc1)C(C(Cc1ccccc1)=NO)c1ccccc1 (stereo not drawn) [GT-11] | 13.3 µM | 63.9 µM | 18.9 µM | 31.6 µM |  |  |  |  | < 1% |  |  | 
24 | COc1cc(OC)c2cc(-c3nc4ccccc4[nH]3)c(-c3ccc(C)cc3)nc2c1 [GT-35] | > 100 µM | > 100 µM | 42 µM | 63 µM | 36% | 36% | > 10 µM | > 10 µM |  | 14% | 49% | 
25 | Cc1ccc(CC#N)c(-c2c(CC#N)ccc(C)c2C)c1C [GT-9] | > 100 µM | > 100 µM | > 100 µM | 55.3 µM |  |  |  |  | 34.6% |  |  | 
26 | CC(N)c1ccc(-c2ccc(F)cc2)cc1 (stereo not drawn) [GT-29] | 35.7 µM | 25 µM | 21 µM | 12.3 µM |  |  |  |  | < 1% |  |  | 
27 | CCN1CCN(C(=O)c2ccc(-c3nc4ccccc4nc3-c3ccccc3)cc2)CC1 [GT-30] | 32 µM | 60 µM | 81 µM | 34 µM | < 1% | < 1% | > 10 µM | > 10 µM |  |  |  | 
28 | Nc1ccn([C@@H]2CS[C@H](CO)O2)c(=O)n1 [3TC, reference compound] |  |  |  |  | 82% |  |  |  | 97% |  |  | 
29 | OC(Cn1cnc(-c2ccccc2)c1-c1cc2ccccc2[nH]1)c1cccnc1 (stereo not drawn) [GT-41] | 12 µM | 27 µM | 18 µM | 10 µM | < 1% | < 1% | > 10 µM | > 10 µM |  |  |  | 
30 | CC(=O)N1CCC(NCc2nc(-c3ccc(C)cc3)c(-c3ccccn3)[nH]2)CC1 [GT-44] | 63 µM | 64 µM | > 100 µM | 70 µM | 37% | 37% | > 10 µM | > 10 µM |  |  |  | 54%
31 | O=C(OCc1ccccc1)c1cccnc1 [GT-16] | > 100 µM | > 100 µM | > 100 µM | > 100 µM |  |  |  |  | 1.7% |  |  | 
32 | O=C(CC1C=Cc2ccccc2N1C(=O)c1ccccc1)c1ccccc1 (stereo not drawn) [GT-8] | > 100 µM | > 100 µM | > 100 µM | > 100 µM |  |  |  |  | < 1% |  |  | 
33 | CNc1cc(C#N)nc(-c2ccccc2)n1 [GT-28] | 63.8 µM | 24 µM | > 100 µM | > 100 µM |  |  |  |  | < 1% |  |  | 
34 | CCC(CO)Nc1nc2ccc(Cl)cc2c2ccccc12 (stereo not drawn) [GT-10] | 15.2 µM | 18.2 µM | 14.4 µM | 12.9 µM |  |  |  |  | < 1% |  |  | 
35 | O=C(NCc1cccnc1)C1CCNCC1 [GT-23] | > 100 µM | > 100 µM | > 100 µM | > 100 µM |  |  |  |  | < 1% |  |  | 
36 | Cc1nc2ccccc2nc1-c1sc2ncccc2c1O [GT-37] | > 100 µM | > 100 µM | 19 µM | 24 µM | 40% | 40% | > 10 µM | > 10 µM |  | 48% | < 1% | 
37 | O=C(NCCc1ccccc1)c1cccnc1 [GT-13] | > 100 µM | > 100 µM | > 100 µM | > 100 µM |  |  |  |  | < 1% |  |  | 
38 | Fc1ccccc1CNCc1ccccn1 [GT-14] | > 100 µM | > 100 µM | > 100 µM | > 100 µM |  |  |  |  | < 1% |  |  | 
39 | NCc1ccc(F)c(COC2CCCC2)c1 [GT-22] | 36.3 µM | > 100 µM | 88.6 µM | > 100 µM |  |  |  |  | < 1% |  |  | 
